Laboratory results as given in patent publication US12729218B2, “Glycolipids and use thereof as SK3 ion channel modulators” (priority 2020, dated 2026).

Key:
[1] = target: T1, SK3 channels (Homo sapiens, UniProt Q9UGI6); assay: Whole-cell patch-clamp of SK3 currents in HEK293T cells expressing SK3 channels; type: cell-based; details: 10 μM; for time after addition at which the effect on SK3 current was reached / time after application at which the maximum of the activation of SK3 current was reached: currents at 0 mV
T1 construct: expressed in transfected cells
Procedure: HEK293T were obtained from American Type Culture Collection (ATCC) and cultured in Dulbecco's Modified Eagle's Medium, supplemented with 10% (v:v) fetal bovine serum (Lonza, France), 1 mM pyruvate sodium (Sigma-Aldrich, France), and 1% non-essential amino acid (Sigma-Aldrich, France). Cells were grown in a humidified atmosphere at 37° C. and with 95% air and 5% CO2. HEK293T cells were transduced as previously described to obtain stable expression of homotetramer SK3 channels.
Experiments were performed in the whole-cell configuration of the patch-clamp technique. The patch pipettes were filled with solution contained 145 mM KCl, 1 mM MgCl2, 1 mM Mg-ATP, 0.7 mM CaCl2), 1 mM EGTA and 10 mM HEPES (PCa 6). pH was adjusted to 7.2 with KOH. The bath solution contained 140 mM NaCl, 4 mM KCl, 2 mM CaCl2), 1 mM MgCl2, 10 mM HEPES, 0.33 mM NaH2PO4, and 11.5 mM D-glucose. pH was adjusted to 7.4 with NaOH. Patch-clamp experiments and data analyses were conducted as previously described (Girault, A. et al. Current Cancer Drug Target, 2011, 11, 1111-1125). […] The amplitude of the apamin-sensitive current was obtained by subtraction of the amplitude of the current before and after application of 100 nmol/L apamin (a specific SKCa blocker).
The capacity of the compounds 001-006 (Table 2, FIGS. 1 and 2) to modulate the activity of SK3 currents was measured using the whole cell configuration of the patch-clamp technique. For these acute tests, a concentration of 10 μM for each of the compounds was used.

[2] = system: Thoracic aortic segment (smooth muscle cells); assay: Relaxation of phenylephrine pre-contracted, endothelium-removed thoracic aortic rings; design: species or system guinea pig; details: 10 μM added 2 times, pre-contracted with 10 μM phenylephrine, 5 minutes after additions
Description: Thoracic aortic segments were isolated from a guinea pig as already indicated by Vandier et al, (Adv Physiol Educ. 2002 December; 26(1-4):195-203). Briefly, thoracic aortic segments were isolated, cleaned of adventitia, and cut into rings. The endothelium was removed and aortic rings, were mounted on stainless steel hooks and suspended in a 30-ml jacketed tissue bath with physiological salt solution (in mm): 120 NaCl, 5.4 KCl, 1 MgCl2, 0.6 NaH2PO4, 25 NaHCO3, 5.6 glucose, 5 Na-pyruvate, and 2 CaCl2, bubbled with 95% 02-5% CO2 maintained at 37° C. and aerated with 95% 02-5% CO2. Solutions to be tested were directly added in the jacketed tissue bath generated allowed one to get the desired concentration around the aortic rings. Isometric force generation was recorded with Grass transducers (FT03; Quincy, MA) connected to an amplifier (gain 500) and analogic to digital converter (1 Hz) connected to a computer.
Thoracic aortic segment was pre-contracted using 10 μM phenylephrine. After the steady state was reached 10 μM of compound 002 was added, two successive times, directly in the bath solution containing a physiological salt solution, maintained at 37° C. and aerated with 95% 02-5% CO2

| Substance | time after addition at which the effect on SK3 current was reached [1] [s] | relaxation effect on pre-contracted thoracic aortic segment [2] | effect on SK3 channel in words [1] | time after application at which the maximum of the activation of SK3 current was reached [1] [min] | SK3 current (change after application of compound) ([1]; acute, HEK293T expressing SK3, currents analyzed at 0 mV, pCa 6, mean ± SEM) |
| --- | --- | --- | --- | --- | --- |
| Lac(OH)7-O-2-ethoxy-4-S-heneicosane [compound 006] | 30 |  |  |  |  |
| Lac(OH)7-O-2-methoxy-3-S-heneicosane [compound 002] | 30 | dose-dependent relaxation | strong activator of SK3 channel | 5 |  |
| Lac(OH)7-O-2-methoxy-3-S-hexadecane [compound 001] |  |  | abolished the activating effect |  | −9.7% ± 5.2 |
| Lac(OH)7-O-2-methoxy-4-S-heneicosane [compound 003] |  |  | kept its activation capacity | 5 |  |
